# Measured values taken from PMC4751497, “Characterization of SCO4439, a D-alanyl-D-alanine carboxypeptidase involved in spore cell wall maturation, resistance, and germination in Streptomyces coelicolor” (Scientific Reports, 2016).
# Molecular target: T1, His6-SCO4439 (Streptomyces coelicolor, UniProt Q9KZY7)
# T1 construct: whole SCO4439 gene with N-terminal His6 tag in pET11a (pBRB7), expressed in E. coli JM109 (DE3), HisTrap purified, tag kept; native protein 84 kDa; tag followed by VARED (from primer BRB7F)
# T1 sequence (Q9KZY7 entry or part of it): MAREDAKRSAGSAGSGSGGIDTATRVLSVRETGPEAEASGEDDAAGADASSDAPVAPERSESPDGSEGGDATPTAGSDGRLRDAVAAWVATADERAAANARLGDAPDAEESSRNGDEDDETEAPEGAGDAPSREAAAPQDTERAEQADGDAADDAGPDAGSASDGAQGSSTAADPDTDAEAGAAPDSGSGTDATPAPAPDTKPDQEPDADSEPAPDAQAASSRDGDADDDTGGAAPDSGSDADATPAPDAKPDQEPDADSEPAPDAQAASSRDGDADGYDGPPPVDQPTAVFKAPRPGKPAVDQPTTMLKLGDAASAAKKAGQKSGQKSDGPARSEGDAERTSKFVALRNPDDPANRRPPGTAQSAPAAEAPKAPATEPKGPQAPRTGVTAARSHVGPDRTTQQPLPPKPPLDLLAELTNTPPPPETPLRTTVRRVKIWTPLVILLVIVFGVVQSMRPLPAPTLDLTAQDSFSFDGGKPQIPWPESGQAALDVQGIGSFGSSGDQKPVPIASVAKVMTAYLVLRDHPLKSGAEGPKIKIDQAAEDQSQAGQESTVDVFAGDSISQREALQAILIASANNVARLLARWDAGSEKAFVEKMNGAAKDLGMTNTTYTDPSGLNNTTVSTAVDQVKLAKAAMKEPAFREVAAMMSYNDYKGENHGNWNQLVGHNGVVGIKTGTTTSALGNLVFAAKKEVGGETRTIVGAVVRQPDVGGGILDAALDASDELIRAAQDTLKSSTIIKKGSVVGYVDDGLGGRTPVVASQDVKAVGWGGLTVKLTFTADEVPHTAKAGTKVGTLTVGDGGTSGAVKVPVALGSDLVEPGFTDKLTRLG
# Test: D-Ala release, D-amino acid oxidase-peroxidase coupled colorimetric assay
# Assay type: biochemical
smiles,measurement,value
CC1(C)S[C@@H]2[C@H](NC(=O)Cc3ccccc3)C(=O)N2[C@H]1C(=O)O [penicillin G],IC50,1000 µM
